{"source": "ChEMBL document CHEMBL1126551", "about": "“Three-dimensional quantitative structure-activity relationships of 5-HT receptor binding data for tetrahydropyridinylindole derivatives: a comparison of the Hansch and CoMFA methods” (J Med Chem, 1993)"}
{"molecular_target": "T1, 5-hydroxytryptamine receptor 1A (Rattus norvegicus, UniProt P19327)", "T1 sequence (P19327 whole entry)": "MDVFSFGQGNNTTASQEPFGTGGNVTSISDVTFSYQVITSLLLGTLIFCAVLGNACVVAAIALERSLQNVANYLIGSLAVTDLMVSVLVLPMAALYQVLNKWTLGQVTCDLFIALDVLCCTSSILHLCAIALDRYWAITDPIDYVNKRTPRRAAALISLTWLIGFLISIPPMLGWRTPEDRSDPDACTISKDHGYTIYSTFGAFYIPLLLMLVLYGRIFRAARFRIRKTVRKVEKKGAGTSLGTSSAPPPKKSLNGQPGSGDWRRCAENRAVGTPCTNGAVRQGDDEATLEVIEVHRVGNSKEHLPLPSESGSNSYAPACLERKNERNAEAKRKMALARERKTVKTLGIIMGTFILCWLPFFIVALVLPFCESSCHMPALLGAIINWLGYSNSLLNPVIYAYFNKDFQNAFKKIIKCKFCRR", "units": {"Ki": "nM"}, "description": "Binding affinity towards 5-hydroxytryptamine 1A receptor using [3H]8-OH-DPAT as radioligand."}
{"molecule": "CN1CC=C(c2c[nH]c3ccc(OCc4ccccc4)cc23)CC1", "Ki": 111}
{"molecule": "CN1CC=C(c2c[nH]c3ccc(C#N)cc23)CC1", "Ki": 55}
{"molecule": "CCCN1CC=C(c2c[nH]c3ccc(C(N)=O)cc23)CC1", "Ki": 17}
{"molecule": "C1=C(c2c[nH]c3ccccc23)CCN(Cc2ccccc2)C1", "Ki": 923}
{"molecule": "C1=C(c2c[nH]c3ccccc23)CCNC1", "Ki": 189}
{"molecule": "CN1CC=C(c2c[nH]c3ccc(C4OCCO4)cc23)CC1", "Ki": 87.9}
{"molecule": "CC(=O)Oc1ccc2[nH]cc(C3=CCN(C)CC3)c2c1", "Ki": 81.3}
{"molecule": "CCCN1CC=C(c2c[nH]c3ccc(NC(C)=O)cc23)CC1", "Ki": 37}
{"molecule": "CCOC(=O)c1ccc2[nH]cc(C3=CCN(C)CC3)c2c1", "Ki": 36.1}
{"molecule": "COc1ccc2[nH]cc(C3CCN(C)CC3)c2c1", "Ki": 138}
{"molecule": "CN1CC=C(c2c[nH]c3ccc([S+](C)[O-])cc23)CC1", "note": "(stereo unspecified)", "Ki": 105}
{"molecule": "CSc1ccc2[nH]cc(C3=CCN(C)CC3)c2c1", "Ki": 23}
{"molecule": "CC(O)c1ccc2[nH]cc(C3=CCN(C)CC3)c2c1", "note": "(stereo unspecified)", "Ki": 221}
{"molecule": "Cc1ccc2[nH]cc(C3=CCN(C)CC3)c2c1", "Ki": 146}
{"molecule": "CN1CC=C(c2cn(Cc3ccccc3)c3ccccc23)CC1", "Ki": 10000}
{"molecule": "COc1ccc2[nH]cc(C3=CCN(C)CC3)c2c1", "Ki": 21.1}
{"molecule": "CC(=O)Nc1ccc2[nH]cc(C3=CCN(C)CC3)c2c1", "Ki": 77.6}
{"molecule": "CN1CC=C(c2c[nH]c3ccc(C(C)(C)O)cc23)CC1", "Ki": 187}
{"molecule": "CN1CC=C(c2c[nH]c3ccc(-c4ccccc4)cc23)CC1", "Ki": 55}
{"molecule": "CN1CC=C(c2c[nH]c3ccc(C(N)=O)cc23)CC1", "Ki": 5.3}
{"molecule": "CN1CC=C(c2c[nH]c3ccc(-c4ccccn4)cc23)CC1", "Ki": 25.1}
{"molecule": "CCCN1CC=C(c2c[nH]c3ccccc23)CC1", "Ki": 556}
{"molecule": "CN1CC=C(c2c[nH]c3ccc(CO)cc23)CC1", "Ki": 126}
{"molecule": "CCN1CC=C(c2c[nH]c3ccc(C(=O)OC)cc23)CC1", "Ki": 384}
{"molecule": "CN1CCC(c2c[nH]c3ccccc23)(c2c[nH]c3ccccc23)CC1", "Ki": 550}
{"molecule": "CN1CC=C(c2c[nH]c3ccc(Cl)cc23)CC1", "Ki": 189}
{"molecule": "CN1CC=C(c2c[nH]c3ccc(O)cc23)CC1", "Ki": 61.7}
{"molecule": "CN1CC=C(c2c[nH]c3ccc(-c4cccs4)cc23)CC1", "Ki": 19}
{"molecule": "CCCN1CC=C(c2c[nH]c3ccc(OC)cc23)CC1", "Ki": 363}
{"molecule": "CC(=O)c1ccc2[nH]cc(C3=CCN(C)CC3)c2c1", "Ki": 23}
{"molecule": "COC(=O)c1ccc2[nH]cc(C3=CCN(C)CC3)c2c1", "Ki": 19.4}
{"molecule": "CN1CC=C(c2c[nH]c3ccccc23)CC1", "Ki": 146}
{"molecule": "CN1CC=C(c2c[nH]c3ccc([Si](C)(C)C)cc23)CC1", "Ki": 165}
{"molecule": "CN1CC=C(c2c[nH]c3ccc([N+](=O)[O-])cc23)CC1", "Ki": 21.1}
{"molecule": "CN1CCC(c2c[nH]c3ccccc23)CC1", "Ki": 513}
{"molecule": "COc1ccc2[nH]c(C)c(C3=CCN(C)CC3)c2c1", "Ki": 345}
{"molecule": "O=[N+]([O-])c1ccc2[nH]cc(C3=CCNCC3)c2c1", "Ki": 64.6}
{"molecule": "CN1CC=C(c2c[nH]c3ccc(NS(C)(=O)=O)cc23)CC1", "Ki": 692}
{"molecule": "CN1CC=C(c2c[nH]c3ccc(-c4ccc(F)cc4)cc23)CC1", "Ki": 69}
{"molecule": "CCCN1CC=C(c2c[nH]c3ccc(C#N)cc23)CC1", "Ki": 303}
{"molecule": "CN1CC=C(c2c[nH]c3ccc(-c4ccsc4)cc23)CC1", "Ki": 25.1}
{"molecule": "CN1CC=C(c2c[nH]c3ccc(S(C)(=O)=O)cc23)CC1", "Ki": 188}
{"molecule": "CN1CC=C(c2c[nH]c3ccc(Br)cc23)CC1", "Ki": 11}
{"molecule": "CN1CC=C(c2c[nH]c3ccc(-c4ccncc4)cc23)CC1", "Ki": 74.1}
{"molecule": "CN1CC=C(c2c[nH]c3ccc(-c4cccnc4)cc23)CC1", "Ki": 200}
{"molecule": "CN1CC=C(c2c[nH]c3ccc(N4C(=O)c5ccccc5C4=O)cc23)CC1", "Ki": 377}
